“Also recorded” adds a separate entry of the source.
Assays:
[1] = test system: ROS production from PMA activated RAW. 267 cells (murine macrophages); assay: Lucigenin enhanced (myeloperoxidase independent) oxidative burst; type: cell-based; conditions: lucigenin enhanced, PMA activated RAW. 267 cells
Description: Intracellular effect was determined using human peripheral whole blood phagocytes and isolated neutrophils and from mice peritoneum macrophages, where luminol-enhanced chemillumenescence assay was applied. The effect on myeloperoxidase independent ROS production was determined using lucigenin on murine macrophages RAW.267 cells. […] Table 2. […] 267 cells (murine macrophages). DPI is used as standard drug. Reading presents mean±SD of three determinations.

[2] = test system: ROS production from human peripheral whole blood phagocytes; assay: Luminol enhanced chemiluminescence oxidative burst, whole blood; type: cell-based; conditions: luminol enhanced, serum opsonized zymosan, read-out: Myeloperoxidase dependent Oxidative Burst (IC50 μg/mL) Whole blood
Description: (§1) Intracellular effect was determined using human peripheral whole blood phagocytes and isolated neutrophils and from mice peritoneum macrophages, where luminol-enhanced chemillumenescence assay was applied. The effect on myeloperoxidase independent ROS production was determined using lucigenin on murine macrophages RAW.267 cells.
(§2) Table 2. […] 267 cells (murine macrophages). DPI is used as standard drug. Reading presents mean±SD of three determinations.
(§3) Luminol enhanced chemiluminescence technique was applied to study the effect of compound on ROS from phagocytes, Using whole blood, neutrophil and macrophages Briefly, 25 μL diluted whole blood (1:50 dilution in sterile HBSS^++) or 25 μL of PMNs (1×10^6), or 25 μL of isolated macrophages (1×10^6) were incubated with 25 μL of compound in triplicates and using three different concentrations (1, 10 and 100 μg/mL) using white 96 wells plates. Wells received HBSS^++ and cells only without compound served as positive control. 25 μL of serum opsonized zymosan-A (SOZ), followed by 25 μL luminol (7×10^−5 M), was added to each well to maintain a volume of 100 μL/well. Plates were then incubated at 37° C. for 30 minutes in the thermostated chamber of the luminometer. Results were monitored as relative light unit (RLU) reading, with peak and total integral values set with repeated scans at 60 seconds intervals, and 1 second points measuring time.

[3] = test system: ROS production from human neutrophils; assay: Luminol enhanced chemiluminescence oxidative burst, isolated neutrophils; type: cell-based; conditions: Neutrophil, serum opsonized zymosan, read-out: Myeloperoxidase dependent Oxidative Burst (IC50 μg/mL) Neutrophils
Description: as §1, §2
Heparinized blood was obtained by vein puncture aseptically, from healthy volunteers (25-38 years age). The buffy coat containing polymorhonuclear neutrophils (PMNs) was collected by dextran sedimentation, and cells were isolated after the LSM density gradient centrifugation. […]
as §3, with “Wells received HBSS^++ and cells only without compound served as positive control. 25 μL of serum opsonized zymosan-A (SOZ), followed by 25 μL luminol (7×10^−5 M), was added to each well to maintain a volume of 100 μL/well. Plates were then incubated at 37° C. for 30 minutes in the thermostated chamber of the luminometer.” left out

[4] = test system: ROS production from mice peritoneal macrophages; assay: Luminol enhanced chemiluminescence oxidative burst, mice peritoneal macrophages; type: cell-based; conditions: Mus musculus, Peritoneal macrophage, serum opsonized zymosan, read-out: Myeloperoxidase dependent Oxidative Burst (IC50 μg/mL) Macrophages
Description: as §1, §2
NMRI mice of 25 to 30 gm weight were injected aseptically with 1 mL of heat inactivated fetal bovine serum (FBS) in the peritoneum cavity, using sterile 1 mL syringe and mice were kept for further 72 h. […] Cells were counted and concentration was adjusted to 1×10^6/mL for chemiluminescence assay.
as §3, with “Wells received HBSS^++ and cells only without compound served as positive control. 25 μL of serum opsonized zymosan-A (SOZ), followed by 25 μL luminol (7×10^−5 M), was added to each well to maintain a volume of 100 μL/well. Plates were then incubated at 37° C. for 30 minutes in the thermostated chamber of the luminometer.” left out

serum TNF-α = assay: Adjuvant induced arthritis model, serum TNF-α; type: in vivo, Sprague Dawley rats; conditions: AIA rats, daily intraperitoneal; Patuletin 25 mg/kg, indomethacin 5 mg/kg
Description: (§4) All studies were carried out using Female Sprague Dawley (SD) rats weighing 150-250 gms. Animals were kept at 21±2° C. and on a 12-h light/dark cycle, received standardized pelleted diet and tap water. Experiments were performed under the ethical guidelines of the International Association for the study of pain in conscious animals. Each group contains 12 animals with randomly distributed weights into each treatment group.
(§5) Arthritis was induced by injecting freshly prepared 100 μL of 1 mg suspension of lyophilized Mycobacterium tuberculosis H37Ra (MT H37Ra; DIFCO Laboratories, Detroit, Mich., USA), subcutaneously at the rat tail base using sterile hypodermic needle. Inoculation was carried out under anesthesia with a combination of 20 mg/kg ketamine and 5 mg/kg xylazine, injected intraperitoneally. Compound and the reference drug were administered daily, intraperitoneally using sterile syringes. The positive control received vehicle (5% DMSO+PBS) or saline only; treatment groups received test compounds (25 mg/kg), whereas reference group received indomethacin (5 mg/kg). The doses of the test compounds were selected after preliminary dose finding studies. […]
(§6) The quantitative measurement of TNF-α and IL-1β was done in serum of all groups of animals including arthritic and non-arthritic using commercial ELISA assay kits (Abcam, USA) according to the manufacturer's instructions. […]

serum IL-1β = assay: Adjuvant induced arthritis model, serum IL-1β; type: in vivo, Sprague Dawley rats; conditions: AIA rats, daily intraperitoneal; Patuletin 25 mg/kg, indomethacin 5 mg/kg
Description: as §4, §5, §6

serum nitric oxide = assay: Adjuvant induced arthritis model, serum nitric oxide; type: in vivo, Sprague Dawley rats; conditions: AIA rats, daily intraperitoneal; Patuletin 25 mg/kg, indomethacin 5 mg/kg
Description: as §4
(§7) Arthritis was induced by injecting freshly prepared 100 μL of 1 mg suspension of lyophilized Mycobacterium tuberculosis H37Ra (MT H37Ra; DIFCO Laboratories, Detroit, Mich., USA), subcutaneously at the rat tail base using sterile hypodermic needle. […]
(§8) Peroxide (PO) and nitric oxide (NO), in serum were determined in the serum samples of both the normal and arthritic groups, using quantitative colorimetric assay kits, i.e., the Quantichrom ™ Nitric Oxide Assay Kit, and the Quantichrome™ Peroxide assay kit Diox-250 (BioAssay Systems, Hayward, Calif., USA). […] The samples were analyzed in duplicates using 96-well plate and the plate was read at 540 nm. The Quantichrome™ Peroxide assay kit Diox −250 system is an improved method which utilizes the oxidation of Fe^++ by peroxide present in the analyzed sample resulting in formation of purple complex that gives the accurate measure of peroxide level in the sample when read at 540-610 nm.

serum peroxide = assay: Adjuvant induced arthritis model, serum peroxide; type: in vivo, Sprague Dawley rats; conditions: AIA rats, daily intraperitoneal; Patuletin 25 mg/kg, indomethacin 5 mg/kg
Description: as §4, §7, §8

rheumatoid factor = assay: Adjuvant induced arthritis model, serum RA factor; type: in vivo, Sprague Dawley rats; conditions: AIA rats, daily intraperitoneal; Patuletin 25 mg/kg, indomethacin 5 mg/kg
Description: as §4
Arthritis was induced by injecting freshly prepared 100 μL of 1 mg suspension of lyophilized Mycobacterium tuberculosis H37Ra (MT H37Ra; DIFCO Laboratories, Detroit, Mich., USA), subcutaneously at the rat tail base using sterile hypodermic needle. Inoculation was carried out under anesthesia with a combination of 20 mg/kg ketamine and 5 mg/kg xylazine, injected intraperitoneally. Compound and the reference drug were administered daily, intraperitoneally using sterile syringes. […]
Measurement of RA factor in rat serum was determined using Tina-quant RFII Kit (Roche Diagnostics, USA) and automated analyzers according to manufacturer's instructions. The test principle involves the reaction of latex bound heat inactivated IgG (antigen) with RF antibodies in the sample to form Ag/Ab complex resulting in agglutination which can be measured turbidimetrically.

[5] = test system: knee joints of arthritic rats; assay: Adjuvant induced arthritis model, histopathology of knee joints (H & E); type: in vivo, Sprague Dawley rats; conditions: H & E staining
Description: as §4
Arthritis was induced by injecting freshly prepared 100 μL of 1 mg suspension of lyophilized Mycobacterium tuberculosis H37Ra (MT H37Ra; DIFCO Laboratories, Detroit, Mich., USA), subcutaneously at the rat tail base using sterile hypodermic needle. Inoculation was carried out under anesthesia with a combination of 20 mg/kg ketamine and 5 mg/kg xylazine, injected intraperitoneally. Compound and the reference drug were administered daily, intraperitoneally using sterile syringes. The positive control received vehicle (5% DMSO+PBS) or saline only; treatment groups received test compounds (25 mg/kg), whereas reference group received indomethacin (5 mg/kg). The doses of the test compounds were selected after preliminary dose finding studies. The treatment was started on the same day after vaccination.
The animals were sacrificed at the end of the experiment and samples were taken from the knee joints. Sample fixation were done using 10% formalin following decalcification. The samples were then processed, embedded, cut, mounted and stained with hematoxylin and eosin (H & E) dye for microscopic evaluation.

[6] = test system: PHA activated T cells isolated from human peripheral blood; assay: Thymidine incorporation T cell proliferation assay (PHA activated); type: cell-based; conditions: 72 h
Description: Heparinized blood was obtained by vein puncture aseptically from healthy volunteers (25-38 years age). Blood (10 mL) was mixed with incomplete RPMI, layered on 5 mL of Lymphocyte separation medium and centrifuged at 400 g for 20 min at room temperature. Buffy layer was collected and mixed with incomplete RPMI and centrifuged at 4° C. for 10 min at 300 g. Cells were obtained after the RBCs (if any) lysis using hypotonic solution, and washed at 4° C. for 10 min at 300 g. The cells were then suspended in complete RPMI containing 5% FBS and their concentration was adjusted to 2×10^6 cells/mL for T-cell proliferation assay.
Cell proliferation assay was conducted through standard thymidine incorporation technique. Briefly, isolated T-cells from peripheral blood of healthy individuals were plated at a concentration of 2×10^6 cells/mL in a round bottom 96-well tissue culture plates. Cells were stimulated with 7.5 μg/mL of PHA. […] The plate was then incubated for 72 hours at 37° C. in 5% CO2 incubator. After 72 hours, cultures were pulsed with 0.5 μCi/well tritiated thymidine (Amersham Pharmacia Biotech), and further incubated for 18 h. Cells were harvested onto a glass fiber filters using cell harvester (Innotech, Dottikon, Switzerland). The level of the thymidine incorporated into the cells was measured by a liquid scintillation counter (LS 6500, Beckman Coulter, Fullerton, Calif., USA). Results were expressed as mean count per minute (CPM). The inhibitory activity of compounds on T-lymphocyte proliferation was calculated using the following formula: […]

TNF-α production = TNF-α production from PMA differentiated, LPS activated THP-1 cells (ELISA); type: cell-based, human; conditions: 4 h
Description: The symbol * and δ represents the P≦0.03 and P≦0.006, respectively.
FIG. 2 depicts the effect of pentoxyfillin (PTX) on TNF-α production (pg/mL) Human monocytic leukemia THP-1 cells were differentiated and activated with 20 ng/mL of PMA and 50 ng/mL of LPS, respectively and incubated with different concentrations of PTX for 4h, the supernatant was analyzed for the level of TNF-α by ELISA. The symbol * represents P≦of 0.03.
THP-1 (human monocytic leukemia) cells were maintained in RPMI-1640 supplemented with 10% FBS, 2 mmol/L glutamine, 5.5 mmol/L glucose, 50 μmol/L mercaptoethanol, 1 mmol/L sodium pyruvate, and 10 mmol/L HEPES and incubated at 37° C. in 5% CO2. Cells were grown in […] culture flask until they attained 70% confluency. Cells were then plated in 24-well tissue culture plates at a concentration of 2.5×10^5 cells/mL. Cells were differentiated into macrophages using PMA at a final concentration of 20 ng/mL and further incubated at 37° C. in 5% CO2 environment for 24 h. […] After addition of the compound cells were then incubated for 4 h for TNF-α production and 18 h for IL-1β production at 37° C. in 5% CO2. The supernatants were harvested and analyzed for the level of TNF-α and IL-1β, by human TNF-α and IL-1β Duo set ELISA kits, and according to the manufacturer's instructions.

With [Cl-].c1ccc2c(c1)[I+]c1ccccc1-2 [DPI, reference compound] the “Myeloperoxidase independent Oxidative Burst (IC50 μg/mL) on macrophages” value [1] was 1.6 ± 0.1 µg/mL.

With CC(C)Cc1ccc(C(C)C(=O)O)cc1 (centres unmarked) [Ibuprofen, reference compound] the IC50 [2] was 11.2 ± 1.9 µg/mL, the IC50 [3] was 2.5 ± 0.6 µg/mL and the IC50 [4] was 16.9 ± 2.5 µg/mL.

For COc1ccc2c(c1)c(CC(=O)O)c(C)n2C(=O)c1ccc(Cl)cc1 [Indomethacin, reference compound], the “level of TNF-α in serum versus arthritic control group” value (serum TNF-α) was “marked decrease”, the “level of IL-1β in serum versus arthritic control group” value (serum IL-1β) was “significant decrease; also recorded: marked decrease” and the “level of nitric oxide in serum versus arthritic control group” value (serum nitric oxide) was “marked reduction; also recorded: significant decrease”. For the same molecule, the “level of peroxide in serum versus arthritic control group” value (serum peroxide) was “decrease; also recorded: non-significant reduction”, the “level of RA factor (rheumatoid factor) in serum versus arthritic control group” value (rheumatoid factor) was “marked decrease” and the “histopathology of knee joints (in words) versus arthritic control rats” value [5] was “less infiltration of lymphocytes and minimal bone destruction”. For the same molecule, the “histopathology score of knee joints” value ([5]; normal control score 0, arthritic control score 4) was 2.

With C[C@]12C=CC(=O)C=C1CC[C@@H]1[C@@H]2[C@@H](O)C[C@@]2(C)[C@H]1CC[C@]2(O)C(=O)CO [Prednisolone] the “Human T cell proliferation (IC50 μg/mL)” value [6] was less than 0.62 µg/mL and the IC50 ([6]; Homo sapiens, T-cell, read-out: Human T cell proliferation (IC50 μg/mL)) was less than 0.62 µg/mL.

For CC(=O)CCCCn1c(=O)c2c(ncn2C)n(C)c1=O [pentoxyfillin, reference compound], the “inhibition of TNF-α production (IC50)” value (TNF-α production) was 94.8 µg/mL.

Reference: US20150025131A1 (priority 2013, published 2015)
